From ChEMBL document CHEMBL1201862, “PubChem BioAssay data set” (2004)
Calls of active or inactive are those of the source.

What was measured:
Cytochrome P450 2D6 = Cytochrome P450 2D6 (Homo sapiens, UniProt P10635);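 note: CYP2D6 member of a cytochrome P450 panel assay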
[1] = molecular target: Lysine-specific demethylase 4A (Homo sapiens, UniProt O75164); assay: JMJD2A histone demethylase inhibitors, dose response, selectivity assay for GASC-1 inhibitor project, biochemical, DELFIA europium, cherry-picked samples (AID 488840)
Sequence of Lysine-specific demethylase 4A (O75164 whole entry): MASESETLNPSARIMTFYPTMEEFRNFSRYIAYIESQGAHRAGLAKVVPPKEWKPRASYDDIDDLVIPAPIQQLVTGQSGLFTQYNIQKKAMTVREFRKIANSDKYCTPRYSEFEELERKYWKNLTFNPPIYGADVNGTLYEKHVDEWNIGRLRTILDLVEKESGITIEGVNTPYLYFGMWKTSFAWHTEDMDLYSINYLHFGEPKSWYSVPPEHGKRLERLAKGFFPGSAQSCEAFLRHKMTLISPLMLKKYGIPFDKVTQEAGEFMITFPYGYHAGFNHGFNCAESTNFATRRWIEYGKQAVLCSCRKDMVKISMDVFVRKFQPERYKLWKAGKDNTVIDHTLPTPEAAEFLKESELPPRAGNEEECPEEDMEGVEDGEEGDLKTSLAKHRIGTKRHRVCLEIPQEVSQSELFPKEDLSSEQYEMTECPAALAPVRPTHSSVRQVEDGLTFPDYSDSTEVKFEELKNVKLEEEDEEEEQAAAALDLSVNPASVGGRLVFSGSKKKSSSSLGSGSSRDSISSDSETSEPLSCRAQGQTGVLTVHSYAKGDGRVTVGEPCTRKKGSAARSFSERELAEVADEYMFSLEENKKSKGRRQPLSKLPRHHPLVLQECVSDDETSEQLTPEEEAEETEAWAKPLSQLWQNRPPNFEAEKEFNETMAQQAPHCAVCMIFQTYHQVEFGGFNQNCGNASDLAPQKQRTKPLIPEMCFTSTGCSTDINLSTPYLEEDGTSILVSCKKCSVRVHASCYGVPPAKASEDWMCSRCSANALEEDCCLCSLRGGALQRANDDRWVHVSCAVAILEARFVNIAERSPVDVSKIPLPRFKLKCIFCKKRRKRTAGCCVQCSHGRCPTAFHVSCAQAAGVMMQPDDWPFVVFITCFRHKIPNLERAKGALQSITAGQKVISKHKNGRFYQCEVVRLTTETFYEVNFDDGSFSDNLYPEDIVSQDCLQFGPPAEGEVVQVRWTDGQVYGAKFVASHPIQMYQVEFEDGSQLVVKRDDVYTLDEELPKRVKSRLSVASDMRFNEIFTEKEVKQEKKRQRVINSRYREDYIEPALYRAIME

[2] = molecular target: T1, Lysine-specific demethylase 4C (Homo sapiens, UniProt Q9H3R0); assay: GASC-1 (JMJD2C) histone demethylase inhibitors, dose response, biochemical, DELFIA europium, cherry-picked samples (AID 488835); format: functional
T1 sequence (Q9H3R0 whole entry): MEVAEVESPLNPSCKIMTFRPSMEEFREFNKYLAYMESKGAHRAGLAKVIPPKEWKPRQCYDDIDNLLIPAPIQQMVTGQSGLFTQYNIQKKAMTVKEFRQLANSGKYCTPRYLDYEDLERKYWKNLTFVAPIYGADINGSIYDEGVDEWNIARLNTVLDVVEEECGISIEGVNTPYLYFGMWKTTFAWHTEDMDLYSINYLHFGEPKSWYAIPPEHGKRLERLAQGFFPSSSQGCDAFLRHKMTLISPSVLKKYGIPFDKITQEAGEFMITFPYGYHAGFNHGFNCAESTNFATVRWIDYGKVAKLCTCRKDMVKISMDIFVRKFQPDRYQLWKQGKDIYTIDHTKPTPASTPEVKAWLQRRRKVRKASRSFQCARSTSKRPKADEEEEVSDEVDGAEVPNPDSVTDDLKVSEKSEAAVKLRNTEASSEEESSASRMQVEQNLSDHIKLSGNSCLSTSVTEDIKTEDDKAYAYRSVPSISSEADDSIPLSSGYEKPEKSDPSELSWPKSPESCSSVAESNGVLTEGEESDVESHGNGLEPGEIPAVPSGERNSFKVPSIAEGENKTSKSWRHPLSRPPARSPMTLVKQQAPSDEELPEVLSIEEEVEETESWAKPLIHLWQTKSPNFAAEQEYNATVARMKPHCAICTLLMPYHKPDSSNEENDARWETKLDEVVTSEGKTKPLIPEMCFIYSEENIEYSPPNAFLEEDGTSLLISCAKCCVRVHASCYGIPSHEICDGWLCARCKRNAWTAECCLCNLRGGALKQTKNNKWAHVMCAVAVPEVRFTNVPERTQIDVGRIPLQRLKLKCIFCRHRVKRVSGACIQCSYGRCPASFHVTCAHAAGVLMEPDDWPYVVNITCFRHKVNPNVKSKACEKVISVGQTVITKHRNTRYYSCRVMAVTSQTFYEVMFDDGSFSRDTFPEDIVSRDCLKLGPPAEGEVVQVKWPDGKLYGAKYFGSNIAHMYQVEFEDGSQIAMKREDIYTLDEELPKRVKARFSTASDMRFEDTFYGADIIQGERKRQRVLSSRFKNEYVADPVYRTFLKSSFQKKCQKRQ

Tumor necrosis factor = Tumor necrosis factor (Homo sapiens, UniProt P01375); assay: TNFa-triggered NF-kB activation inhibitors, SAR follow-up, cell-based, set 3 (AID 2801); format: functional
Sequence of Tumor necrosis factor (P01375 whole entry, the tested form may be a part): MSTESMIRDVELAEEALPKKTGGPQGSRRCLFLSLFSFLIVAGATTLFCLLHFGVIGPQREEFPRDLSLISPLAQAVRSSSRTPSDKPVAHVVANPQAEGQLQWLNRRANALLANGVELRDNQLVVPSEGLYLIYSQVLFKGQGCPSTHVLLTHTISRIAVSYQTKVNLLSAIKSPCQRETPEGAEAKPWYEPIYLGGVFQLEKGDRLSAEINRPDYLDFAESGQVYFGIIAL

[3] = molecular target: Nucleotide-binding oligomerization domain-containing protein 2 (Homo sapiens, UniProt Q9HC29); assay: NOD2 signaling inhibitors, analog potency, SAR follow-up, cell-based, set 3 (AID 2799); format: functional
Sequence of Nucleotide-binding oligomerization domain-containing protein 2 (Q9HC29 whole entry, the tested form may be a part): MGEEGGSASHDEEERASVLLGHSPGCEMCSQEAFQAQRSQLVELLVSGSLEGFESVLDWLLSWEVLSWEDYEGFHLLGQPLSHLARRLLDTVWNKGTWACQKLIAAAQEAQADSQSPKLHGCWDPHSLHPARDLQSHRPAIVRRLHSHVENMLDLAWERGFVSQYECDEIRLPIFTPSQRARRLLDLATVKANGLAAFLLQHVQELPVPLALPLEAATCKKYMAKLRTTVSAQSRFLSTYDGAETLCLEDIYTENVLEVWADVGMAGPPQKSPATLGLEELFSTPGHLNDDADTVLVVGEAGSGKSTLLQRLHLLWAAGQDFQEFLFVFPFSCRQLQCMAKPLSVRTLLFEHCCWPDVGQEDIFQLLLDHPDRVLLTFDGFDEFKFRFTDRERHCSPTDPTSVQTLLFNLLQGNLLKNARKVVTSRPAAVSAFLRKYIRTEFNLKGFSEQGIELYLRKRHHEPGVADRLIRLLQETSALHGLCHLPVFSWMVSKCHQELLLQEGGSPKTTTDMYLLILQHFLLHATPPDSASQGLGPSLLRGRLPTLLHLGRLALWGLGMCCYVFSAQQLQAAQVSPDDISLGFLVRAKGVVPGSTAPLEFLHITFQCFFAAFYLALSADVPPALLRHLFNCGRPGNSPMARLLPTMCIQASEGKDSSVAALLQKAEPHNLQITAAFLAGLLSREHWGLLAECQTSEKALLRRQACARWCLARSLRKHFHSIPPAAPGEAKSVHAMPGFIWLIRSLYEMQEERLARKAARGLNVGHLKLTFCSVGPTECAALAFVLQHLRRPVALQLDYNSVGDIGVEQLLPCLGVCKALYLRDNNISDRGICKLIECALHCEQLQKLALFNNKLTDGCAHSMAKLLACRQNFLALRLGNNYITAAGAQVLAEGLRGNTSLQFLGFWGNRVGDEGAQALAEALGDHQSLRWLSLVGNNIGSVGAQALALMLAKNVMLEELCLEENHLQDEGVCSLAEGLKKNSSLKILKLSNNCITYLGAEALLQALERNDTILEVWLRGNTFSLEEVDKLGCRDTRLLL

[4] = molecular target: T2, Nucleotide-binding oligomerization domain-containing protein 1 (Homo sapiens, UniProt Q9Y239); assay: SAR analysis of compounds that inhibit NOD1 - Set 3. [Related pubchem assays (depositor defined):AID1566, AID1575, AID1578, AID1849, AID1852, AID2333, AID2335, AID2466]; format: functional
T2 sequence (Q9Y239 whole entry): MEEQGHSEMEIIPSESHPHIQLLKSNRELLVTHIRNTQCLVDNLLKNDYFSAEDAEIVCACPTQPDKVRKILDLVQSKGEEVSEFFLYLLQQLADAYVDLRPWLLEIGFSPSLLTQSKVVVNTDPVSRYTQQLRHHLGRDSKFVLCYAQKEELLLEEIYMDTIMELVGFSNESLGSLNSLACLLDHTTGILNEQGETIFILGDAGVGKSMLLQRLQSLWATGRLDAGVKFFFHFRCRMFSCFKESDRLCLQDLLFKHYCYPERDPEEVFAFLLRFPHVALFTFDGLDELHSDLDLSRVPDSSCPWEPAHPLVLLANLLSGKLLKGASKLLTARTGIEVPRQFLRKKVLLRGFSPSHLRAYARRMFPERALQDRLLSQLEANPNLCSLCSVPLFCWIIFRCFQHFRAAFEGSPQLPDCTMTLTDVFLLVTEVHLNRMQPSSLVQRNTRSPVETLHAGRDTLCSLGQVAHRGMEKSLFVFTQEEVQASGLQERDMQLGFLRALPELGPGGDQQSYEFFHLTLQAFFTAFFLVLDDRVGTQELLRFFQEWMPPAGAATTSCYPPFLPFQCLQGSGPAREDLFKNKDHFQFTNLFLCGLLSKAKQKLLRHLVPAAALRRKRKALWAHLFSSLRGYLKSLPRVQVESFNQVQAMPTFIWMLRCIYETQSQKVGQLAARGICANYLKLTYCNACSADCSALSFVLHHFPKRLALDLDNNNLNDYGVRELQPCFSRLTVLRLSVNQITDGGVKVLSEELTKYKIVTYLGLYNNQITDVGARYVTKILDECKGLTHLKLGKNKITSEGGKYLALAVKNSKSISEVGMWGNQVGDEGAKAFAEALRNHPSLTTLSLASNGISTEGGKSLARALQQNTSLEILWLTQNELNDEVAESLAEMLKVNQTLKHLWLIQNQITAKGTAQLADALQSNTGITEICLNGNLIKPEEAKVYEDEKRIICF

HEK293 [5] = assay: SAR analysis of compounds that are cytotoxic to HEK293 - Set 3. [Related pubchem assays (depositor defined):AID1575, AID1578, AID1848, AID1849, AID2001, AID2333, AID2334, AID2335, AID2337, AID2469]; format: functional, cell-based; conditions: Homo sapiens
[6] = inhibitors of intracellular T. cruzi replication, confirmation, NIH3T3 host cells, beta-gal luminescence (AID 2044); format: functional, cell-based;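 note: intracellular parasites grown in NIH/3T3 mouse fibroblasts as host cells; luminescent beta-galactosidase reporter signal from transgenic T. cruzi replicating inside host cells; inhibitors lower the luminescence signal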
HEK293 [7] = assay: cells; conditions: Homo sapiens
[8] = cytotoxicity toward NIH3T3 fibroblasts, dose response, counter-screen, cell-based, ATP luminescence, mouse fibroblasts (AID 2010); format: functional;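 note: cells exposed to compound for about 90 hours before reading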
[9] = inhibitors of PGC1a acetylation in cells, dose response, cell-based, cherry-picked samples (AID 720514); format: functional;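 note: potency may reflect raised or lowered acetylation signal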
HEK293 [10] = assay: cells; conditions: Homo sapiens; remark: listed apart in the source
[11] = A Cell Based Secondary Assay To Explore Cytotoxicity of Compounds that Sensitize Mycobacterium Tuberculosis to Beta-Lactam Antibiotics.; format: functional
[12] = molecular target: T3, Heat shock factor protein 1 (Mus musculus, UniProt P38532); assay: HSF1 potentiators in luciferase reporter cells, confirmation, cell-based, NIH3T3, luminescence, dose retest (AID 435004); format: functional;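 note: stress induced by proteasome inhibitor MG132 added 30 min after compound; luciferase reporter driven by HSF1 response element in NIH3T3 cells; actives raise luminescence as potentiators of the MG132 stress response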
T3 sequence (P38532 whole entry): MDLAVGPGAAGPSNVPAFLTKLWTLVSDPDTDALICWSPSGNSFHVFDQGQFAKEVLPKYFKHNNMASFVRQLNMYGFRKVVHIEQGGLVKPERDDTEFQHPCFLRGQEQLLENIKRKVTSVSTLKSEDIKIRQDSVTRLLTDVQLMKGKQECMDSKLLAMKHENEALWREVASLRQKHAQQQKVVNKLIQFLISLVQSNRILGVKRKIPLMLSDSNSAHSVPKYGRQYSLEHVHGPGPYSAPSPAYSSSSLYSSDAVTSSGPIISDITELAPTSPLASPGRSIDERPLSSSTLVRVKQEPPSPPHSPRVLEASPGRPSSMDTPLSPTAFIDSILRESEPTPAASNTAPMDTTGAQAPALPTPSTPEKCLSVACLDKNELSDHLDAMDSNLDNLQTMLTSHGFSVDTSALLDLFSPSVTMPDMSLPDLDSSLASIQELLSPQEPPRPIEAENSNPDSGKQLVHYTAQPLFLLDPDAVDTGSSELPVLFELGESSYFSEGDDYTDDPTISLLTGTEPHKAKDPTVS

INS1 = assay: beta cell apoptosis inhibitors, cytokine rescue, dose response, luminescence, retest (AID 449756); format: functional, cell-based; conditions: Rattus norvegicus;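 note: cell death triggered by IL-1 beta plus TNF-alpha plus IFN-gamma mixture; protective hits raise ATP signal compared with cytokine alone wells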
[13] = cytotoxicity in HEK-293T NF-kB-Luc cells, dose response, cytotoxicity control for B/T-cell NF-kB inhibitor project, cell-based, uHTS hits (AID 489019); format: functional;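 note: IC50 reflects cytotoxicity as loss of cell viability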
Jurkat = assay: antigen receptor-induced NF-kB inhibitors, dose response, Jurkat, luciferase reporter, luminescence, B- and T-cell (AID 489004); format: functional, cell-based; conditions: Homo sapiens;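 note: NF-kB luciferase reporter Jurkat cells stimulated with PMA plus ionomycin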
[14] = molecular target: T4, Zinc finger protein mex-5 (Caenorhabditis elegans, UniProt Q9XUB2); assay: MEX-5/TCR-2 RNA interaction inhibitors, dose response, biochemical, C. elegans, fluorescence polarization (AID 1960)
T4 sequence (Q9XUB2 whole entry): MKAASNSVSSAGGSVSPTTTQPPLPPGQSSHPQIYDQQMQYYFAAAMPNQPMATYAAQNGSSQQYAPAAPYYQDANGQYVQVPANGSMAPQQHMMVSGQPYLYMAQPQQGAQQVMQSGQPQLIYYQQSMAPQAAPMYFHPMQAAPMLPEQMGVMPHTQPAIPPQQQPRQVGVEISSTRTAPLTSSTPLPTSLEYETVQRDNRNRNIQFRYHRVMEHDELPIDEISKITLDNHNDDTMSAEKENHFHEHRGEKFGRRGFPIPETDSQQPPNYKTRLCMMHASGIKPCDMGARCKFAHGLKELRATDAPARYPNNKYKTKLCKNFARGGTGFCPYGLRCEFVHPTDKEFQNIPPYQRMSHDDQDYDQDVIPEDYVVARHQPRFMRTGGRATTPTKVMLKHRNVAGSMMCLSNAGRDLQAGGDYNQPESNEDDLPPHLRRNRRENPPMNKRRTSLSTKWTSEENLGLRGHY

[15] = molecular target: T5, RNA-binding protein pos-1 (Caenorhabditis elegans, UniProt G5EF15); assay: inhibitors of POS-1/mex-3 RNA binding, dose response, biochemical, fluorescence polarization (AID 1964);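 note: purified POS-1 fused to maltose binding protein made in E. coli; potency of compounds blocking POS-1 binding to fluorescent RNA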
T5 sequence (G5EF15 whole entry): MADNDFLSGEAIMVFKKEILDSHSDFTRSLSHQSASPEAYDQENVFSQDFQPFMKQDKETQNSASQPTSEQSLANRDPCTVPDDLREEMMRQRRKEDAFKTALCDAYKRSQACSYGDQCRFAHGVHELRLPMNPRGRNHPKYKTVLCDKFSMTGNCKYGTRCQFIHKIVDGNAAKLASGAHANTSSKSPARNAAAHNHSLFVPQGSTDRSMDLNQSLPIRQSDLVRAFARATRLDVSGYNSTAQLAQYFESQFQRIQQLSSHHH

Cytochrome P450 2C9 = Cytochrome P450 2C9 (Homo sapiens, UniProt P11712)
Sequence of Cytochrome P450 2C9 (P11712 whole entry): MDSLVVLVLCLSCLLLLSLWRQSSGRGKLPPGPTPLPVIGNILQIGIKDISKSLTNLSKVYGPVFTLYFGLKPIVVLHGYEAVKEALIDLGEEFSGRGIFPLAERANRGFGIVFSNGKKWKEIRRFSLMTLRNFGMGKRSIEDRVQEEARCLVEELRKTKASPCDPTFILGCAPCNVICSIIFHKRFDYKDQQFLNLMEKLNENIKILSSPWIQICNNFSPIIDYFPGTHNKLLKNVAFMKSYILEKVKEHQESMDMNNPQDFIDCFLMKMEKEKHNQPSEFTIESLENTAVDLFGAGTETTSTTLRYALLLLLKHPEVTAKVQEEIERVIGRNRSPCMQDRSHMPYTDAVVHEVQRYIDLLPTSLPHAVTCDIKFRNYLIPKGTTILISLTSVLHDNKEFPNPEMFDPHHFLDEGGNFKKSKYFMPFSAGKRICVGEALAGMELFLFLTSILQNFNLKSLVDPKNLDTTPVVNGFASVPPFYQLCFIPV

Cytochrome P450 2C19 = Cytochrome P450 2C19 (Homo sapiens, UniProt P33261); assay: Cytochrome panel assay with activity outcomes. Panel member name: p450-cyp2c19 Compounds with AC50 equal or less than 10 uM are considered active; format: functional; conditions: read-out: AC50
Sequence of Cytochrome P450 2C19 (P33261 whole entry): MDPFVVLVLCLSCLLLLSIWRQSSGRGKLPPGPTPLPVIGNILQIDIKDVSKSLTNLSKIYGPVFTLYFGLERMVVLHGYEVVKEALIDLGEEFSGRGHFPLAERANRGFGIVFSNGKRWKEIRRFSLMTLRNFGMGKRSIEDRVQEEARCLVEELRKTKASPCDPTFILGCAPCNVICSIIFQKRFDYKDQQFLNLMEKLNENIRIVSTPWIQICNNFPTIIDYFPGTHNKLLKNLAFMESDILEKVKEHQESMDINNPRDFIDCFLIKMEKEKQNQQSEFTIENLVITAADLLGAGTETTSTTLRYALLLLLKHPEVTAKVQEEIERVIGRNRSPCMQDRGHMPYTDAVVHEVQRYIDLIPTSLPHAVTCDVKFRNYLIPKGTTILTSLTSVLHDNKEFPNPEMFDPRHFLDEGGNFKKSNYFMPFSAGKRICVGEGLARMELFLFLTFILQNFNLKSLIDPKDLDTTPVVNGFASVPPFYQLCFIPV

Leucine aminopeptidase = molecular target: T6, Leucine aminopeptidase (Plasmodium falciparum 3D7, UniProt Q8IL11); assay: P. falciparum M17LAP inhibitors, primary screen, biochemical, fluorogenic H-Leu-NHMec substrate, 1536-well (AID 1619); format: functional
T6 sequence (Q8IL11 whole entry): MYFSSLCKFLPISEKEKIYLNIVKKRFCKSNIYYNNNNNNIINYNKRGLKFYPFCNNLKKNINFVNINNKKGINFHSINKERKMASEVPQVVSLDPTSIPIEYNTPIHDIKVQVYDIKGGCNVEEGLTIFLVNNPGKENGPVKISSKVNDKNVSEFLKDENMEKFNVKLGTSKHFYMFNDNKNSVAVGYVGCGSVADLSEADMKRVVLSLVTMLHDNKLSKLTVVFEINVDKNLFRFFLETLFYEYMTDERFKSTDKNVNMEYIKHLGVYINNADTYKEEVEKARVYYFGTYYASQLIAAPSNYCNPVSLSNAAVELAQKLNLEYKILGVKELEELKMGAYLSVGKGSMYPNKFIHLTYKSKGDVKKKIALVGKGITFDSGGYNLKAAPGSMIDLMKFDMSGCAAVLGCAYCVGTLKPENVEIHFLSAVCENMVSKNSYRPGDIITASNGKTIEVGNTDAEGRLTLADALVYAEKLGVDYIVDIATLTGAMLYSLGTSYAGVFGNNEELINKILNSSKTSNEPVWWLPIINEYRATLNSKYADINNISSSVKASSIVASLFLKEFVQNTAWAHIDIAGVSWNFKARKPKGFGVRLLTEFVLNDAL

Sequence of Cytochrome P450 2D6 (P10635 whole entry): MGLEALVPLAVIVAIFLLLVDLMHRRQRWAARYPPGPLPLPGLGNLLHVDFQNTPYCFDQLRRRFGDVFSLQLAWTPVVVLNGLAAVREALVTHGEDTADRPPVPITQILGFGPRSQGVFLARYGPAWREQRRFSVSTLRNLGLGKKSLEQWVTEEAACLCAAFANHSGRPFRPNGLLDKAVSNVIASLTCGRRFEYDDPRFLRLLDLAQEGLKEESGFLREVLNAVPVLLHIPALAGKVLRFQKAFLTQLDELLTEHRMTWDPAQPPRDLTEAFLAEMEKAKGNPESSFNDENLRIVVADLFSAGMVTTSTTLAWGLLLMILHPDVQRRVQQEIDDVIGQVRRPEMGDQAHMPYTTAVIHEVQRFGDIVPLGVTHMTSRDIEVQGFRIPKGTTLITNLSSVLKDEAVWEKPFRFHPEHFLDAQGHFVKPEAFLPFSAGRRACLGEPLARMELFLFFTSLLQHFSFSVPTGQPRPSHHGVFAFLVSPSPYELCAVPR

O=C1OC(=O)[C@@H]2[C@@H]1[C@@H]1CC[C@H]2O1
AC50 (Cytochrome P450 2D6): inconclusive

CC(C)Oc1ccc(Cc2c(O)nc(O)nc2O)cc1
AC50 [1]: 17.5 µM (active) | AC50 [2]: 2.86 µM (active)

Nc1nc2ccccc2n1S(=O)(=O)c1cccc2ccccc12
IC50 (Tumor necrosis factor): > 20 µM (inactive) | IC50 [3]: > 20 µM (inactive) | IC50 [4]: > 20 µM (inactive) | IC50 (HEK293 [5]): > 20 µM (inactive)

N#Cc1cc(Oc2cccc3cccnc23)c(-n2nnc3ccccc32)cc1C#N
EC50 [6]: 2.25 µM (active) | EC50 (HEK293 [7]): > 59.6 µM (inactive) | EC50 [8]: 22.6 µM (active) | AC50 [9]: 2.77 µM (active) | EC50 (HEK293 [10]): > 59.6 µM (inactive) | CC50 [11]: > 40 µM (active) | EC50 [12]: > 260 µM (inactive)

CCCCCCCCn1ccc(=N)cc1
AC50 (INS1): 0.585 µM (active) | IC50 [13]: > 80 µM (inactive) | IC50 (Jurkat): > 80 µM (inactive)

C=CCn1c(C)cc(C(=O)CN2NS(=O)(=O)c3ccccc3C2=O)c1C
EC50 (HEK293 [7]): > 59.6 µM (inactive) | EC50 (HEK293 [10]): > 2.21 µM (active)

Cn1c(=O)c2[nH]c(N=NNc3ccccc3F)nc2n(C)c1=O
EC50 [14]: 21.7 µM (active) | AC50 [1]: 17.3 µM (active) | EC50 [15]: 62 µM (active) | AC50 [2]: 8.83 µM (active)

Cc1ccc(NC(=O)c2cc(NC(=O)CCC(=O)O)ccc2N2CCCCC2)cc1
AC50 (Cytochrome P450 2C9): 14.1 µM (inconclusive) | AC50 (Cytochrome P450 2C19): 35.5 µM (inconclusive) | AC50 (Cytochrome P450 2D6): inconclusive | IC50 (Leucine aminopeptidase): 11.8 µM (active)
